Target: ABCB1 (Homo sapiens, UniProt P08183)
Format: biochemical

Sequence of ABCB1 (P08183 whole entry): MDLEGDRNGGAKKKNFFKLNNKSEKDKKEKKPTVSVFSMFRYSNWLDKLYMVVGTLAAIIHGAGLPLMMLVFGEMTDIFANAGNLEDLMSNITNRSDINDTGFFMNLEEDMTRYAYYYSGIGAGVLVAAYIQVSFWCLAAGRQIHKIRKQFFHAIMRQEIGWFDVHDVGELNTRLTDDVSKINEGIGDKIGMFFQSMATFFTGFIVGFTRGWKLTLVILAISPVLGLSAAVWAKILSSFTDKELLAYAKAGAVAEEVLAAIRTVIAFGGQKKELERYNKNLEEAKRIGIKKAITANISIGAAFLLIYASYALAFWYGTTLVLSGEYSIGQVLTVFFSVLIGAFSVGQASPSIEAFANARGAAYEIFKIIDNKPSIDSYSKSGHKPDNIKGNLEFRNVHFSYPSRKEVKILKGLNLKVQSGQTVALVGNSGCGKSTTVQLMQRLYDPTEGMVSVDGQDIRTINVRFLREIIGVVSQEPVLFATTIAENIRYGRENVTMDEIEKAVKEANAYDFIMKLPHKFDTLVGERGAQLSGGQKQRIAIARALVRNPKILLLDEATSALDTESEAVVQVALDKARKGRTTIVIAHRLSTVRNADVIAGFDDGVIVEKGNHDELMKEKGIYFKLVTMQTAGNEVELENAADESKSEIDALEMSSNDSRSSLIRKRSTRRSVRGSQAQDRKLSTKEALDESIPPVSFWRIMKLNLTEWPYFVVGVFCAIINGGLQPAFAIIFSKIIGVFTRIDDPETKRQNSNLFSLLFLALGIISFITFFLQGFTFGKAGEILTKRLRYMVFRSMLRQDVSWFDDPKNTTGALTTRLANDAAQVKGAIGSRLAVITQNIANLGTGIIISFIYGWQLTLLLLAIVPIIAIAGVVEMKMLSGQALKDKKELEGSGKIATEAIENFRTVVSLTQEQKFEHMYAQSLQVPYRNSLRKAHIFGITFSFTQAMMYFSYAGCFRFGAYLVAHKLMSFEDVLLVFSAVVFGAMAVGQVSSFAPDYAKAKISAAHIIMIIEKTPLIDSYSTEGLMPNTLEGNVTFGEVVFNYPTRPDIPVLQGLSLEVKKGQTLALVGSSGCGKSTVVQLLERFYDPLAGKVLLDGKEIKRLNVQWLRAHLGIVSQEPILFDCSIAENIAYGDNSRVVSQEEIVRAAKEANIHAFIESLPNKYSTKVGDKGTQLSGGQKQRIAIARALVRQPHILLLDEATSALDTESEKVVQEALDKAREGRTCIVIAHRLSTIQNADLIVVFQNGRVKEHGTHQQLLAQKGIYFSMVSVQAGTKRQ

vanadate-sensitive ATPase stimulation in crude membranes of High-five cells expr: 2.5 to 5 µM
SMILES: CCN(CC)CCCCNc1ncc2cc(-c3cc(OC)cc(OC)c3)c(NC(=O)NC(C)(C)C)nc2n1 [PD173074]

— article PMC8366681 (Cancer chemotherapy and pharmacology, 2013)
